Where two headings read alike, the source gives them in different places.
What was measured:
HeLa cells = experiment: HeLa cell viability (CellTiter-Glo)
Procedure: (§1) NF-κB activity was assessed using a previously described dual plasmid reporter system. HeLa cells were transfected with NF-κB luciferase (Stratagene Products Division, Agilent Technologies, La Jolla, CA, USA) and pRLuc-N3 (PerkinElmer, Waltham, MA, USA) at an 8:1 ratio, respectively, in triplicate. […] NF-κB activity was measured 5 h later with a Dual-Glo Luciferase Assay (Promega, Madison, WI, USA) and an Omni plate reader (BMG Labtech, Cary, NC, USA). The ratio of firefly luciferase luminescence (NF-κB reporter) to Renilla luciferase luminescence (control) was normalized for the number of viable transfected cells. Data are reported as a ratio of activity of viable treated cells over the activity of cells not exposed to TNF-α or drug (fold stimulation above basal untreated levels of activity). The viability of HeLa cells with and without drug was also measured using a CellTiter-Glo luminescent viability assay (Promega).
In Vitro Hela Cell Drug Toxicity Testing
Potential drug toxicity was measured using a CTG assay and HeLa cells (Promega). Drugs not tested in
this assay were tested in either of the in vitro toxicity assays already presented (synovial or chondrocyte
Table 3- Drug toxicity measured using a CTG assay and HeLa cells.

[1] = tested on: Normal human articular chondrocytes; experiment: Cytotoxicity to chondrogenic pellets (CellTiter-Blue)
Procedure: Differentiated chondrogenic pellets were used both to test the ability of drugs to block MMP-13 activity and to test for drug toxicity. […] Supernatants were collected and analyzed for MMP-13 using an enzyme-linked immunosorbent assay (GE Healthcare Life Sciences, Little Chalfont, UK). Cytotoxicity to pellets was assessed using CellTiter-Blue (Promega).

SW982 = experiment: Synovial toxicity (CellTiter-Glo), with or without TNF-α
Procedure: Viability was measured with the CellTiter-Glo luminescent viability assay (Promega). […] To more accurately predict the effects of the drugs on osteoarthritic synovium, cells were tested with or without TNF-α (20 ng/ml; BioSource).
In Vitro Toxicity Testing with a Synovial Cell Line
Compounds were tested for synovial toxicity using SW982 cells alone or in the presence of TNF as

[2] = published half-life; cited from earlier work
[3] = Comparison of in vitro screens: overlapping effective and nontoxic range; conditions: for Overlapping effective and nontoxic range: inhibits with minimal or no toxicity to synovium or cartilage, overlapping range if effective in more than one assay;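 on all read-outs here: compares non-toxic ranges in synovial cells and chondrocytes with effective ranges against NFkB, MMP-13 and osteoclasts, giving their overlap as the predicted efficacy range in uM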
RAW 264.7 cells = experiment: RANKL-mediated osteoclastogenesis / matrix resorption (Osteologic) assay; type: cell-based, murine; conditions: for minimal effective concentration: Mus musculus, RAW264.7, 168 h, read-out: Lowest inhibitory concentration, matrix resorption
Procedure: RAW 264.7 cells (American Type Culture Collection [ATCC], Manassas, VA, USA), a murine monocytic cell line that differentiates in the presence of RANKL, was used for measurements of osteoclastogenesis and osteoclast activity. Cells were amplified on nonadherent culture substratum in high-glucose Dulbecco’s modified Eagle’s medium (DMEM) containing 10 % fetal bovine serum (FBS) and penicillin-streptomycin in a 37 °C, 5 % CO2, humidified incubator and were passaged by manual dissociation. […] Plates were subsequently rinsed, bleached, dried, and analyzed for matrix degradation using a Nikon COOLSCOPE (Nikon Instruments, Melville, NY, USA). Matrix resorption was quantified using EclipseNet (Nikon Instruments)/Visiopharm (Visiopharm, Hørsholm, Denmark) software (see Additional file 1).
In Vitro Osteoclastogenesis
Osteoclastogenic activity was measured using BD osteologic plates and quantitation of the degree of bone matrix digestion on the plate surface. Images from the BD Osteologic assay used to […]
left pane depicts an example of a control well after removal of cells from matrix. Pseudocoloring of matrix (blue) and pits (green) is shown in the far right pane. A transparent overlay of the two images is shown in the center.
Figure 5 - Measurement of drug effects on osteoclastogenesis and osteoclast activity.
Comparisons were made between RANKL treated control wells and wells treated with both RANKL and […]
Agents were initially tested either during differentiation or post differentiation in the bone assay […]
(e.g., Figure 2, Sulfazalazine). […]
indicated (*/**: p < 0.05/0.01, unpaired t-test versus RANKL control). […]

MMP-13 = MMP-13 ELISA on supernatants of TNF-α-treated chondrogenic pellets; type: cell-based, human; conditions: for Concentration inhibiting MMP-13: > = failed to inhibit up to highest concentration tested
NF-κB = experiment: TNF-α-stimulated NF-κB dual luciferase reporter assay in HeLa cells; type: cell-based
Procedure: as §1, with “(Promega). […]” for “(Promega).”
NF-κB activity was assessed in HeLa cells that were transiently transfected with two reporter constructs as described in the manuscript. Agents were tested for their ability to block TNF- […]
Expression of the luciferase from the Renilla construct was used as a measure of viability, which was confirmed with a cytotoxicity assay (see later section).

Compound | Non-toxic range (Chondrocyte) [1] | Non-toxic range (Synovial) (SW982) [µM] | t 1/2 [2] | Non-toxic & predicted range of efficacy [3] | Overlapping effective and nontoxic range [3] | Effective range against Osteoclasts (RAW 264.7 cells) | further results
CC1=C(CC(=O)O)c2cc(F)ccc2/C1=C\c1ccc([S+](C)[O-])cc1 (centres unmarked) [Sulindac] | 4.35 to 280 µM | 4.4 to 280 | NSAID t 1/2 = 7.8 h | 8.8 to 280 µM | 280 µM | – | Non-toxic concentrations (HeLa cells): 8.75 to 70 µM
CC[C@@H]1/C=C(\C)C[C@H](C)C[C@H](OC)[C@H]2O[C@@](O)(C(=O)C(=O)N3CCCC[C@H]3C(=O)O[C@H](/C(C)=C/[C@@H]3CC[C@@H](O)[C@H](OC)C3)[C@H](C)[C@@H](O)CC1=O)[C@H](C)C[C@@H]2OC [Ascomycin] | 0.625 to 40 µM | 625000 to 4e+07 | – | 1.25 to 40 µM | 1.25 to 40 µM | – | minimal effective concentration (RAW 264.7 cells): 0.01 µM; Effective range against MMP-13 (MMP-13): Not effective; Concentration inhibiting MMP-13 (MMP-13): > 40 µM
O=C(c1ccccc1)c1ccc2n1CCC2C(=O)O (centres unmarked) [Keterolac] | 3.17 to 200 µM | 0.625 to 40 | – | ≥ 12.5 µM | – | Not effective | –
CC1(C)O[C@@H]2C[C@H]3[C@@H]4CCC5=CC(=O)C=C[C@]5(C)[C@@]4(F)[C@@H](O)C[C@]3(C)[C@]2(C(=O)CO)O1 [Triamcinolone acetonide] | – | 0.7 to 250 | Steroid t 1/2 = 88 min | 31.25 to 500 µM | 250 to 500 µM | – | Lowest inhibitory concentration, matrix resorption (RAW 264.7 cells): 250 µM
O=C(O)c1cc(/N=N/c2ccc(S(=O)(=O)Nc3ccccn3)cc2)ccc1O [Sulfasalazine] | 12.5 to 800 µM | 12.5 to 400 | NSAID t 1/2 = 5 – 10 h | 50 to 400 µM | 150 to 1600 µM | – | –
CNC(=O)[C@H](Cc1c[nH]c2ccccc12)NC(=O)[C@@H](CC(=O)NO)CC(C)C [GM6001] | 0.4 to 25 µM | 0.33 to 25 | – | – | – | Not effective | MMP-13, effective concentration (MMP-13): 25
Epigallocatechin-3-gallate [EGCG] | 690000 to 4.4e+07 µM | 690000 to 4.4e+07 | – | 5.5 to 44 µM | 5.5 to 44 µM | None? | Effective range against MMP-13 (MMP-13): ≥ 5.5 µM; Effective range against NFkB (NF-κB): 5.5 to 88 µM
CC(=O)Oc1cccc2c1C(=O)c1c(OC(C)=O)cc(C(=O)O)cc1C2=O [Diacerein] | All toxic | 1.5 to 54.3 | – | None | Toxic to chondrocytes | – | Non-toxic concentrations (HeLa cells; (TNF), i.e. without TNF): 0 to 1.375e+07 µM; Non-toxic concentrations (HeLa cells; +TNF): 0 to 2.275e+07 µM; Toxic concentrations (p<0.05) (HeLa cells; with TNF): 50 to 110 M
COc1ccc(CCN(C)CCCC(C#N)(c2ccc(OC)c(OC)c2)C(C)C)cc1OC (centres unmarked) [Verapamil] | – | – | – | – | – | Not effective | –
Cc1ccc(S(=O)(=O)/C=C/C#N)cc1 [BAY-117082, BAY-11-7082] | 0.18 to 1.5 µM | 3 to 6 | – | None | 6 to 192 µM | ≥ 3 µM | Non-toxic concentrations (HeLa cells): 6 to 96 µM; Concentration with notable toxicity (SW982): 12 µM; Effective range against MMP-13 (MMP-13): ≥ 0.75 µM; Effective against NF κβ (p<0.05) (NF-κB): 12 to 96 µM; Effective range against NFkB (NF-κB): 12 to 96 µM
Oc1ccc(/C=C/c2cc(O)cc(O)c2)cc1 [Resveratrol] | 3.12 to 200 µM | 3.12 to 100 | Suppresses IL-1β signaling and IL-1β-stimulated apoptosis in osteoarthritis [98] A natural inhibitor of NF-κB [99] t 1/2 = 1–3 h | – | – | – | Lowest inhibitory concentration, matrix resorption (RAW 264.7 cells): 6.25 µM; Effective range against NFkB (NF-κB): Not effective
CC[C@@H]1/C=C(\C)C[C@H](C)C[C@H](OC)[C@H]2O[C@@](O)(C(=O)C(=O)N3CCCC[C@H]3C(=O)O[C@H](/C(C)=C/[C@@H]3CC[C@H](Cl)[C@H](OC)C3)[C@H](C)[C@@H](O)CC1=O)[C@H](C)C[C@@H]2OC [Pimecrolimus] | 0.625 to 40 µM | 0.625 to 40 | Ascomycin macrolactam derivative Like tacrolimus, a calcineurin inhibitor that inhibits release of inflammatory cytokines [97] t 1/2 = 30–100 h | 2.5 to 40 µM | 2.5 to 20 µM | – | minimal effective concentration (RAW 264.7 cells): 0.01 µM; Effective range against MMP-13 (MMP-13): Not effective; Concentration inhibiting MMP-13 (MMP-13): > 40 µM
O=C(O)c1cc(O)c2c(c1)C(=O)c1cccc(O)c1C2=O [Rhein] | 0.625 to 40 µM | 625000 to 4e+07 | Anthraquinone-active metabolite of diacerein Reduces proliferation of chondrocytes and synoviocytes; inhibits NF-κB activation in vitro [101] t 1/2 = 4.3 h | 40 µM | – | Not effective | Non-toxic concentrations (HeLa cells): 2.5 to 20 µM; Effective against NF κβ (p<0.05) (NF-κB): Only at toxic
Nc1cc(-c2ccncc2)c[nH]c1=O [Amrinone] | 1.25 to 80 µM | 1.25 to 40 | – | ≥ 80 µM | 80 µM | Not effective | MMP-13, effective concentration (MMP-13; number printed in the class column): 80; Effective range against NFkB (NF-κB): None

— PMC4721142, “Randomized controlled studies on the efficacy of antiarthritic agents in inhibiting cartilage degeneration and pain associated with progression of osteoarthritis in the rat” (Arthritis Research & Therapy, 2016)
